From patent US12122816B2, “Long acting peptide tyrosine tyrosine (PYY) analogs and methods of use” (Intarcia Therapeutics, Inc., priority 2020, dated 2024)

Legend:
[1] = In vitro stability in subcutaneous (SC) tissue homogenates; format: in vitro ADME; details: subcutaneous tissue homogenate, pH 7.4; human SC tissue homogenate 1.0 mg protein/mL, 10 mcM peptide, 37° C.; read-out: (H)SC tissue stability t½ (converted)
[2] = Solubility in DI water at room temperature (visual inspection); format: physicochemical; details: DI water, TFA salt form, read-out: Solubility (in Water, RT)
Protocol: The analog polypeptides described herein were tested for solubility in saline or in aqueous (DI water) at room temperature. Samples were visually inspected for clarity of the sample, any appearance of turbidity or haziness.

human Y2 receptor = target: T1, human Y2 receptor (Homo sapiens, UniProt P49146); experiment: NPY receptor functional assay (cAMP, HEK-CNG cells, ACTOne membrane potential dye); format: cell-based; details: NPY2R pEC50, HEK-CNG cells; standard PYY(3-36); species (human or rat) not given
T1 sequence (P49146 1-381): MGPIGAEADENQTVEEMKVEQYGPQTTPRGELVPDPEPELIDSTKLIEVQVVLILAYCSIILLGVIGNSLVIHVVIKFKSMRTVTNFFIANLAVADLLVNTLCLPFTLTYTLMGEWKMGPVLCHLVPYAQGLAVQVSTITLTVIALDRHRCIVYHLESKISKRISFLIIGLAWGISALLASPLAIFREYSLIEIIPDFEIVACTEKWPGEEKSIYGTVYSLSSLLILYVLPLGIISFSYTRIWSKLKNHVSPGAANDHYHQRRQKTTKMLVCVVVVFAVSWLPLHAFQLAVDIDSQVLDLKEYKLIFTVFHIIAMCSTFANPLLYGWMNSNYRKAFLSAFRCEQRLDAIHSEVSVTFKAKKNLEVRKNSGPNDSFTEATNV
Method in brief: (§1)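 HEK-CNG cells stably expressing each human receptor; peptides added in triplicate for 50 minutes at room temperature, with agonism read as decreased isoproterenol-induced membrane potential dye signal (final/initial read).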

human Y5 receptor = target: T2, human Y5 receptor (Homo sapiens, UniProt Q15761); experiment: as above; format: cell-based; details: NPY5R pEC50, HEK-CNG cells; standard NPY; species (human or rat) not given
T2 sequence (Q15761 1-445): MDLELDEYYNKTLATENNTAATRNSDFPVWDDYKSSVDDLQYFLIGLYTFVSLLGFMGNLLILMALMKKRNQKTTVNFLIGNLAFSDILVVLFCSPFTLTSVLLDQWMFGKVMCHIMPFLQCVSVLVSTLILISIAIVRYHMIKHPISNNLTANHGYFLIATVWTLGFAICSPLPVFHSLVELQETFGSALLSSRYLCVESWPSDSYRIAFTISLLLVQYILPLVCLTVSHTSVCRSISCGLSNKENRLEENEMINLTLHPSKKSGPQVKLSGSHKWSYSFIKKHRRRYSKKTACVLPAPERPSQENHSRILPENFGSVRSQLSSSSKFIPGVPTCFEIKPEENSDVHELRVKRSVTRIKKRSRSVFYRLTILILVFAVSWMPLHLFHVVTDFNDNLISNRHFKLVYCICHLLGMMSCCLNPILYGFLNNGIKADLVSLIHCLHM
Method in brief: as §1

SMILES: CC(C)C[C@H](NC(=O)[C@H](Cc1ccc(O)cc1)NC(=O)[C@H](Cc1c[nH]cn1)NC(=O)[C@H](CCCNC(=N)N)NC(=O)[C@H](CC(C)C)NC(=O)[C@H](CC(=O)O)NC(=O)[C@@H](CCCCNC(=O)CC[C@H](NC(=O)CC[C@H](NC(=O)CCCCCCCCCCCCCCCCCCC(=O)O)C(=O)O)C(=O)O)NC(=O)[C@H](Cc1ccc(O)cc1)NC(=O)[C@H](Cc1ccc(O)cc1)NC(=O)[C@H](CCCNC(=N)N)NC(=O)[C@H](CC(N)=O)NC(=O)[C@H](Cc1c[nH]c2ccccc12)NC(=O)[C@H](CCC(=O)O)NC(=O)[C@H](CCC(=O)O)NC(=O)[C@@H]1CCCN1C(=O)[C@H](CO)NC(=O)[C@H](C)NC(=O)[C@H](CC(=O)O)NC(=O)[C@H](CCCCN)NC(=O)CNC(=O)[C@@H]1CCCN1C(=O)[C@H](C)NC(=O)[C@H](CCC(=O)O)NC(=O)[C@@H]1CCCN1C(=O)[C@H](CCCCN)NC(=O)[C@@H]1CCCN1)C(=O)N[C@@H](CC(N)=O)C(=O)N[C@@H](Cc1c[nH]c2ccccc12)C(=O)N[C@@H](CC(C)C)C(=O)N[C@H](C(=O)N[C@@H](CCCNC(=N)N)C(=O)N[C@@H](CCC(N)=O)C(=O)N[C@@H](CCCNC(=N)N)C(=O)N[C@@H](Cc1ccccc1)C(N)=O)[C@@H](C)O [Compound A14]
- half-life at 10 mcM [1]: 270 min
- solubility [2]: 79 mg/mL
- EC50 (human Y2 receptor): 0.0794 nM
- EC50 (human Y5 receptor): 5.01 nM
